Laboratory results as given in patent US4640922A, “3N-substituted 3,4-dihydropyrimidines as agents for treating disorders of cardiovascular system” (Suntory Limited, priority 1984, dated 1987).
Where two headings read alike, the source gives them in different places.

Columns and labels:
[1] = system: systemic blood pressure; experiment: Systemic blood pressure (average pressure) in anesthetized dogs; type: in vivo, dog; conditions: Canis lupus familiaris, iv, % of value before administration, average ± standard error, read-out: Average blood pressure, percentage compared with control
Experimental: (§1) The pharmacological effects of the compounds of the present invention with respect to the blood flow and blood vessel resistance of vertebral artery and systemic blood pressure (average pressure) in anesthetized dogs. […] The first and second ribs were cut open to expose the left vertebral artery. A probe was attached to the origin of the artery and the blood flow was measured with an electromagnetic rheometer (Model MF-27, product of Nihon Koden K.K.) At the same time, continuous measurement of the following parameters was made: systemic blood pressure (average pressure) at the right femoral artery, the ECG in the second induction period, the heart beat with a tachometer driven by the R wave, and the blood vessel resistance determined by loading a multiplication/division unit (EO-601 G, product of Nihon Koden K.K.) with the average values of blood pressure and blood flow in the vertebral artery. All of these parameters were recorded simultaneously on a polygraph (RM-600, product of Nihon Koden, K.K.) All of the test compounds were injected through a cannula inserted into the femoral […].

[2] = system: vertebral artery; experiment: Blood flow and blood vessel resistance of vertebral artery in anesthetized dogs; type: in vivo, dog; conditions: Canis lupus familiaris, iv, % of value before administration, average ± standard error
Experimental: as §1

[3] = system: coronary artery (isolated heart); experiment: Coronary vascular dilative effect, isolated perfused guinea pig heart, Langendorff's method (perfusion pressure); conditions: for Pharmacological data ED50: 0.1 ml injected into coronary artery, isolated guinea pig heart, 37° C., 6 ml/minute; for coronary vascular dilative effects (in words): Langendorff's method, guinea pig heart
Experimental: The coronary vascular dilative effect of 3N-substituted 3,4-dihydropryrimidine derivatives was tested.
Heartly guinea pigs (weight 400-500 g) were clubbed dead and their hearts were immediately isolated. The hearts were perfused with Krebs-Henseleit solution bubbled with a mixture of 95% O2 +5% CO2 and maintained at 37° C. at a certain rate of 6 ml/minute according to Langendorff's method [J. Pharmacol. Methods 2, 143 (1979)]. The perfusion pressure was determined by a pressure transducer. Samples were prepared by dissolving 1 mg of a test compound in 1 ml of a mixture of dimethylsulfoxide and physiological saline (1:9) and diluting with physiological saline the solution to the predetermined concentration. 0.1 ml of the diluted solution was administered into the coronary artery via a rubber tube connected to an aorta cannula to obtain ED50 (μg/heart) data as shown in Table 1. The numbers of the compounds in the Table correspond respectively to those of the working examples described above.

[4] = read-out: Vertebral artery blood flow, percentage compared with control
[5] = read-out: Vertebral artery vessel resistance, percentage compared with control

| SMILES | response vs control in vivo at 0.001 mg/kg [1] [%] | response vs control in vivo at 0.003 mg/kg [1] [%] | response vs control in vivo at 0.01 mg/kg [1] [%] | response vs control in vivo at 0.03 mg/kg [1] [%] | response vs control in vivo at 0.1 mg/kg [1] [%] | response vs control in vivo at 0.001 mg/kg [2, 4] [%] | response vs control in vivo at 0.001 mg/kg [2, 5] [%] | response vs control in vivo at 0.003 mg/kg [2, 4] [%] | response vs control in vivo at 0.003 mg/kg [2, 5] [%] | response vs control in vivo at 0.01 mg/kg [2, 4] [%] | response vs control in vivo at 0.01 mg/kg [2, 5] [%] | response vs control in vivo at 0.03 mg/kg [2, 4] [%] | response vs control in vivo at 0.03 mg/kg [2, 5] [%] | response vs control in vivo at 0.1 mg/kg [2, 4] [%] | response vs control in vivo at 0.1 mg/kg [2, 5] [%] | Pharmacological data ED50 [3] [μg/heart] | coronary vascular dilative effects (in words) [3] | further results |
| --- | --- | --- | --- | --- | --- | --- | --- | --- | --- | --- | --- | --- | --- | --- | --- | --- | --- | --- |
| CCOC(=O)C1=C(C)N=C(C)N(C(=O)OCC)C1c1ccccc1[N+](=O)[O-] (stereo not shown) [Compound 1, 2,6-Dimethyl-5-ethoxycarbonyl-3-N-ethoxycarbonyl-4-(2'-nitrophenyl)-3,4-dihydropyrimidine] | 90 ± 1 | 88 ± 1 | 79 ± 3 | 74 ± 4 | 75 | 115 ± 9 | 89 ± 4 | 136 ± 6 | 72 ± 5 | 172 ± 20 | 55 ± 3 | 184 ± 26 | 50 ± 6 | 234 | 41 | 0.055 | extremely strong coronary vascular dilative effects | response vs control in vivo at 0.0003 mg/kg ([1]; 0.0003 mg/kg): 94 ± 3%; response vs control in vivo at 0.0003 mg/kg [2, 4]: 107 ± 4%; response vs control in vivo at 0.0003 mg/kg [2, 5]: 93 ± 5% |
| CCOC(=O)C1=C(Cl)N=C(C)N(C(=O)OC)C1c1cccc([N+](=O)[O-])c1 (stereo not shown) [Compound 2, 6-Chloro-5-ethoxycarbonyl-3-N-methoxycarbonyl-2-methyl-4-(3'-nitrophenyl)-3,4-dihydropyrimidine] | – | – | – | – | – | – | – | – | – | – | – | – | – | – | – | 0.98 | – | – |
| CCOC(=O)C1=C(C)N=C(C)N(C(=O)OC)C1c1cccc([N+](=O)[O-])c1 (stereo not shown) [Compound 3, 2,6-Dimethyl-5-ethoxycarbonyl-3-N-methoxycarbonyl-4-(3'-nitrophenyl)-3,4-dihydropyrimidine] | – | – | – | – | – | – | – | – | – | – | – | – | – | – | – | 1.45 | – | – |
| CCOC(=O)C1=C(Cl)N=C(C)N(C(=O)OCC)C1c1ccccc1[N+](=O)[O-] (stereo not shown) [Compound 4] | 95 ± 1 | 93 ± 1 | 91 ± 2 | 88 ± 1 | 84 ± 2 | 107 ± 4 | 91 ± 5 | 113 ± 6 | 86 ± 7 | 143 ± 12 | 66 ± 4 | 147 ± 16 | 61 ± 5 | 182 ± 16 | 51 ± 3 | 0.25 | – | – |
| CCOC(=O)C1=C(C)N=C(C)N(C(=O)OC)C1c1ccccc1[N+](=O)[O-] (stereo not shown) [Compound 5] | – | – | – | – | – | – | – | – | – | – | – | – | – | – | – | 0.066 | extremely strong coronary vascular dilative effects | – |
| CCOC(=O)C1=C(Cl)N=C(C)N(C(=O)OC)C1c1ccccc1[N+](=O)[O-] (stereo not shown) [Compound 6] | – | – | – | – | – | – | – | – | – | – | – | – | – | – | – | 0.70 | – | – |
| CCOC(=O)N1C(C)=NC(C)=C(C(=O)OC)C1c1ccccc1[N+](=O)[O-] (stereo not shown) [Compound 7] | – | – | – | – | – | – | – | – | – | – | – | – | – | – | – | 0.40 | – | – |
| CCOC(=O)C1=C(C)N=C(C)N(C(=O)OCC)C1c1ccccc1Br (stereo not shown) [Compound 8] | 93 | 87 | 81 | 83 | 79 | 110 | 89 | 117 | 81 | 140 | 64 | 182 | 48 | 211 | 40 | 0.033 | extremely strong coronary vascular dilative effects | – |
| CCOC(=O)N1C(C)=NC(Cl)=C(C(=O)OC)C1c1ccccc1[N+](=O)[O-] (stereo not shown) [Compound 9] | – | – | – | – | – | – | – | – | – | – | – | – | – | – | – | 0.78 | – | – |
| COC(=O)C1=C(Cl)N=C(C)N(C(=O)OC)C1c1ccccc1[N+](=O)[O-] (stereo not shown) [Compound 11] | – | – | – | – | – | – | – | – | – | – | – | – | – | – | – | 1.65 | – | – |
